Source: ChEMBL document CHEMBL5252592, “Design, synthesis, and biological activity evaluation of novel tubulin polymerization inhibitors based on pyrimidine ring skeletons” (Bioorg Med Chem Lett, 2023)
pIC50: −log10 of the molar value.

Experiments:
Format in all cases: functional, cell-based
Y79 = experiment: Antiproliferative activity against human Y79 cells assessed as inhibition of cell growth
U-937 = experiment: Antiproliferative activity against human U-937 cells assessed as inhibition of cell growth
A549 = experiment: Antiproliferative activity against human A549 cells assessed as inhibition of cell growth
HepG2 = experiment: Antiproliferative activity against human HepG2 cells assessed as inhibition of cell growth

| Structure (SMILES) | pIC50 (Y79) | pIC50 (U-937) | pIC50 (A549) | pIC50 (HepG2) |
| --- | --- | --- | --- | --- |
| COc1cc(Nc2ccnc(-c3ccc4c(c3)CCO4)n2)cc(OC)c1OC | < 5.00 | < 5.00 | < 5.00 | < 5.00 |
| COc1cc(Nc2cc(-c3csc4ccccc34)ncn2)cc(OC)c1OC | < 5.00 | < 5.00 | < 5.00 | < 5.00 |
| COc1cc(Nc2cc(-c3cc4ccccc4s3)nc(N)n2)cc(OC)c1OC | < 5.00 | < 5.00 | < 5.00 | < 5.00 |
| COc1cc(Nc2cc(-c3ccc4occc4c3)ncn2)cc(OC)c1OC | < 5.00 | < 5.00 | < 5.00 | < 5.00 |
| COc1cc(Nc2cc(-c3coc4ccccc34)nc(N)n2)cc(OC)c1OC | < 5.00 | 5.85 | 5.77 | 5.71 |
| COc1cc(Nc2cc(-c3cc4ccccc4o3)nc(N)n2)cc(OC)c1OC | < 5.00 | < 5.00 | < 5.00 | < 5.00 |
| COc1cc(Nc2nccc(-c3ccc4[nH]c5ccccc5c4c3)n2)cc(OC)c1OC | < 5.00 | 6.05 | 5.51 | 5.83 |
| COc1cc(Nc2cc(-c3cc4ccccc4s3)ncn2)cc(OC)c1OC | < 5.00 | < 5.00 | < 5.00 | < 5.00 |
| COc1cc(Nc2nccc(-c3cc4ccccc4o3)n2)cc(OC)c1OC | < 5.00 | 6.47 | 5.64 | 5.91 |
| COc1cc(Nc2cc(-c3ccc4cc[nH]c4c3)nc(N)n2)cc(OC)c1OC | < 5.00 | 5.67 | 5.72 | 5.60 |
| COc1cc(Nc2nccc(-c3cc4ccccc4s3)n2)cc(OC)c1OC | < 5.00 | 6.92 | 6.34 | 6.62 |
| COc1cc(Nc2cc(-c3ccc4c(c3)OCCO4)ncn2)cc(OC)c1OC | < 5.00 | < 5.00 | < 5.00 | < 5.00 |
| COc1cc(Nc2nccc(-c3ccc4occc4c3)n2)cc(OC)c1OC | < 5.00 | 7.40 | 5.75 | 6.10 |
| COc1cc(Nc2nccc(-c3ccc4c(c3)OCO4)n2)cc(OC)c1OC | < 5.00 | 6.43 | 5.50 | 5.75 |
| COc1cc(Nc2cc(-c3ccc4occc4c3)nc(N)n2)cc(OC)c1OC | < 5.00 | 5.62 | 5.35 | 5.36 |
| COc1cc(Nc2nccc(-c3ccc4cc[nH]c4c3)n2)cc(OC)c1OC | < 5.00 | 6.92 | 6.07 | 6.43 |
| COc1cc(Nc2nccc(-c3ccc4ncccc4c3)n2)cc(OC)c1OC | < 5.00 | 6.01 | 5.75 | 6.08 |
| COc1cc(Nc2ccnc(-c3ccc4c(c3)OCO4)n2)cc(OC)c1OC | < 5.00 | < 5.00 | < 5.00 | < 5.00 |
| COc1cc(Nc2nccc(-c3ccc4sc5ccccc5c4c3)n2)cc(OC)c1OC | < 5.00 | 5.14 | < 5.00 | < 5.00 |
| COc1cc(Nc2ccnc(-c3coc4ccccc34)n2)cc(OC)c1OC | < 5.00 | 6.05 | 5.85 | 5.62 |
| COc1cc(Nc2nccc(-c3coc4ccccc34)n2)cc(OC)c1OC | < 5.00 | 5.45 | 5.42 | 5.38 |

| Structure (SMILES) | pIC50 (Y79) | pIC50 (U-937) | pIC50 (A549) | pIC50 (HepG2) |
| --- | --- | --- | --- | --- |
| COc1cc(Nc2cc(-c3coc4ccccc34)ncn2)cc(OC)c1OC | < 5.00 | < 5.00 | < 5.00 | < 5.00 |
| COc1cc(Nc2ccnc(-c3cc4ccccc4s3)n2)cc(OC)c1OC | < 5.00 | < 5.00 | < 5.00 | < 5.00 |
| COc1cc(Nc2ccnc(-c3cc4ccccc4o3)n2)cc(OC)c1OC | < 5.00 | < 5.00 | < 5.00 | < 5.00 |
| COc1cc(Nc2ccnc(-c3ccc4occc4c3)n2)cc(OC)c1OC | < 5.00 | < 5.00 | < 5.00 | < 5.00 |
| COc1cc(Nc2cc(-c3ccc4c(c3)OCO4)ncn2)cc(OC)c1OC | < 5.00 | < 5.00 | < 5.00 | < 5.00 |
| COc1cc(Nc2cc(-c3ccc4c(c3)CCO4)ncn2)cc(OC)c1OC | < 5.00 | < 5.00 | < 5.00 | < 5.00 |
| COc1cc(Nc2ccnc(-c3ccc4ncccc4c3)n2)cc(OC)c1OC | < 5.00 | < 5.00 | < 5.00 | < 5.00 |
| COc1cc(Nc2cc(-c3ccc4ncccc4c3)ncn2)cc(OC)c1OC | < 5.00 | < 5.00 | < 5.00 | < 5.00 |
| COc1cc(Nc2nccc(-c3csc4ccccc34)n2)cc(OC)c1OC | < 5.00 | 5.75 | < 5.00 | 5.40 |
| COc1cc(Nc2ccnc(-c3ccc4[nH]c5ccccc5c4c3)n2)cc(OC)c1OC | < 5.00 | 5.88 | 5.41 | 5.42 |
| COc1cc(Nc2cc(-c3ccc4c(c3)CCO4)nc(N)n2)cc(OC)c1OC | < 5.00 | < 5.00 | < 5.00 | < 5.00 |
| COc1cc(Nc2cc(-c3ccc4cc[nH]c4c3)ncn2)cc(OC)c1OC | < 5.00 | < 5.00 | < 5.00 | < 5.00 |
| COc1cc(Nc2cc(-c3ccc4c(c3)OCCO4)nc(N)n2)cc(OC)c1OC | < 5.00 | < 5.00 | < 5.00 | < 5.00 |
| COc1cc(Nc2ccnc(-c3csc4ccccc34)n2)cc(OC)c1OC | < 5.00 | 5.81 | 5.51 | 5.30 |
| COc1cc(Nc2cc(-c3cc4ccccc4o3)ncn2)cc(OC)c1OC | < 5.00 | < 5.00 | < 5.00 | < 5.00 |
| COc1cc(Nc2cc(-c3ccc4[nH]c5ccccc5c4c3)ncn2)cc(OC)c1OC | < 5.00 | 5.40 | 5.52 | < 5.00 |
| COc1cc(Nc2ccnc(-c3ccc4c(c3)OCCO4)n2)cc(OC)c1OC | < 5.00 | < 5.00 | < 5.00 | < 5.00 |
| COc1cc(Nc2cc(-c3cccc4c3OCO4)nc(N)n2)cc(OC)c1OC | < 5.00 | < 5.00 | < 5.00 | < 5.00 |
| COc1cc(Nc2nccc(-c3ccc4c(c3)CCO4)n2)cc(OC)c1OC | 6.22 | 6.59 | 6.14 | 6.33 |
| COc1cc(Nc2cc(-c3csc4ccccc34)nc(N)n2)cc(OC)c1OC | < 5.00 | < 5.00 | < 5.00 | < 5.00 |
| COc1cc(Nc2ccnc(-c3ccc4cc[nH]c4c3)n2)cc(OC)c1OC | < 5.00 | < 5.00 | < 5.00 | < 5.00 |
